Assay results published in patent publication US20240158446A1, “CYCLIC COMPOUND HAVING SELECTIVE INHIBITORY ACTION ON KRAS OVER HRAS AND NRAS” (CHUGAI SEIYAKU KABUSHIKI KAISHA, priority 2021, published 2024).
Like-named read-outs stand apart in the source and are kept apart here. Where a SMILES comes first, the peptide text is derived from it. Bridges are numbered along the chain shown (N, C = ends). [ ]: non-standard residue; d: D form. The star is where a group is joined. hPhe(3-Cl-4-CF3) = N[C@@H](CCc1ccc(C(F)(F)F)c(Cl)c1)C(=O)O; NPrPhe(4-CF3) = CCCN[C@@H](Cc1ccc(C(F)(F)F)cc1)C(=O)O; NMePhe(4-F) = CN[C@@H](Cc1ccc(F)cc1)C(=O)O; NMeGly(cPent) = CN[C@H](C(=O)O)C1CCCC1; Pro(4,4-F2) = O=C(O)[C@@H]1CC(F)(F)CN1; NMeD = CN[C@@H](CC(=O)O)C(=O)O; NMeL = CN[C@@H](CC(C)C)C(=O)O; Morpholide = C1CN(*)CCO1; NMeA = CN[C@@H](C)C(=O)O; Ac5c = NC1(C(=O)O)CCCC1; Aze = O=C(O)[C@@H]1CCN1; Ac4c = NC1(C(=O)O)CCC1; Sar = CNCC(=O)O

How the values were obtained:
[1] = biological target: GDP-bound KRAS wild-type protein (Homo sapiens, UniProt P01116); assay: Binding to KRAS by surface plasmon resonance (SPR), Single Cycle Kinetics; details: GDP-bound KRAS wild-type protein, read-out: KRAS KD
Chain of GDP-bound KRAS wild-type protein (P01116 whole entry): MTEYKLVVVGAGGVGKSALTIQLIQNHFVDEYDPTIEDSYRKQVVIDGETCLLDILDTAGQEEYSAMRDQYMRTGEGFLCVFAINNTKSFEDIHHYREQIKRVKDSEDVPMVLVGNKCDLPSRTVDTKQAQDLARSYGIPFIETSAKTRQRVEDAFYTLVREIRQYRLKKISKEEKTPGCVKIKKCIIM

[2] = biological target: GDP-bound NRAS wild-type protein (Homo sapiens, UniProt P01111); assay: Binding to NRAS by surface plasmon resonance (SPR), Single Cycle Kinetics; details: SPR, GDP-bound NRAS wild-type protein vs GDP-bound KRAS wild-type protein
Chain of GDP-bound NRAS wild-type protein (P01111 whole entry): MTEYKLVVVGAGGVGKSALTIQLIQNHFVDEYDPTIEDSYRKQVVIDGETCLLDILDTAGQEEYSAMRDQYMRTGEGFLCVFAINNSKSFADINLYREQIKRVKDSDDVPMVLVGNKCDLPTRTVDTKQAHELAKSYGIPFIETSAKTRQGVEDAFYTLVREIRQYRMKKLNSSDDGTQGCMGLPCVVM

[3] = biological target: GDP-bound HRAS wild-type protein (Homo sapiens, UniProt P01112); assay: Binding to HRAS by surface plasmon resonance (SPR), Single Cycle Kinetics; details: SPR, GDP-bound HRAS wild-type protein vs GDP-bound KRAS wild-type protein
Chain of GDP-bound HRAS wild-type protein (P01112 whole entry): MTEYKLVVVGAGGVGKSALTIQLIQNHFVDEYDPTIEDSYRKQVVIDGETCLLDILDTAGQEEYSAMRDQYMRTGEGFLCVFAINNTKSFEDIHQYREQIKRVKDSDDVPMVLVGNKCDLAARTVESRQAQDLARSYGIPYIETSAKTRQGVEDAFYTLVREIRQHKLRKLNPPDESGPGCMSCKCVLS

[4] = SPR Single Cycle Kinetics, 1:1 binding model

## CCC[C@H]1C(=O)N[C@@H]([C@@H](C)CC)C(=O)N(C)CC(=O)N(C)[C@H]2C/C=C\CCN(C2=O)[C@@H](Cc2ccc(C(F)(F)F)cc2)C(=O)N(C)CC(=O)N[C@@H](CCc2ccc(C(F)(F)F)c(OC)c2)C(=O)N2C[C@H](OCC)C[C@H]2C(=O)NC2(CC(C)(C)C2)C(=O)N(C)[C@@H](C2CCCC2)C(=O)N(C)[C@H](C(=O)N(C)C)CC(=O)N1C [PP1560]
[1]; SPR, Single Cycle Kinetics, 1:1 binding model
  Kd: 0.069 nM
[2]; KD ratio class
  NRAS/KRAS (ratio of KD value for NRAS to KD value for KRAS): A (a compound having 10 or more and less than 20 is denoted as A)
[3]; KD ratio class
  HRAS/KRAS (ratio of KD value for HRAS to KD value for KRAS): B (a compound having 3 or more and less than 10 is denoted as B)

## CCO[C@@H]1C[C@H]2C(=O)NC3(CC(C)(C)C3)C(=O)N(C)[C@@H](C(CC)CC)C(=O)N(C)[C@H](C(=O)N(C)C)CC(=O)N(C)[C@@H](CC)C(=O)N[C@@H]([C@@H](C)CC)C(=O)N(C)CC(=O)N(C)[C@H]3C/C=C\CCN(C3=O)[C@@H](Cc3ccc(C(F)(F)F)cc3)C(=O)N(C)CC(=O)N[C@@H](CCc3cc(F)c(C(F)(F)F)c(F)c3)C(=O)N2C1 [PP2062]
[1]; SPR, Single Cycle Kinetics
  Kd: 0.19 nM
[2]
  NRAS/KRAS (ratio of KD value for NRAS to KD value for KRAS): AA (a compound having 20 or more is denoted as AA)
[3]
  HRAS/KRAS (ratio of KD value for HRAS to KD value for KRAS): A (a compound having 10 or more and less than 20 is denoted as A)

## C=CC[C@H]1C(=O)N[C@@H]([C@@H](C)CC)C(=O)N(C)CC(=O)N(C)[C@H]2CCCCN(C2=O)[C@@H](Cc2ccc(C(F)(F)F)cc2)C(=O)N(C)CC(=O)N[C@@H](CCc2cc(F)c(C(F)(F)F)c(F)c2)C(=O)N2C[C@H](OCC)C[C@H]2C(=O)NC2(CCC2)C(=O)N(C)[C@@H](C2CCCC2)C(=O)N(C)[C@H](C(=O)N2CCOCC2)CC(=O)N1C [PP0710]
[1]; [4]
  Kd: 0.029 nM
[2]
  NRAS/KRAS (ratio of KD value with respect to NRAS to KD value with respect to KRAS): C (A compound having a KD ratio of 0.1 or more and less than 3 is denoted as C)
[3]
  HRAS/KRAS (ratio of KD value with respect to HRAS to KD value with respect to KRAS): B (a compound having 3 or more and less than 10 is denoted as B)

## CCCN1C(=O)[C@@H]2CCN2C(=O)CN(C)C(=O)[C@H]([C@@H](C)CC)NC(=O)[C@H](CC(C)C)N(C)C(=O)C[C@@H](C(=O)N2CCOCC2)NC(=O)[C@H](C2CCCC2)N(C)C(=O)C2(CCC2)NC(=O)[C@@H]2CC(F)(F)CN2C(=O)[C@H](CCc2ccc(C(F)(F)F)c(Cl)c2)NC(=O)CN(C)C(=O)[C@@H]1Cc1ccc(C(F)(F)F)cc1 [PP0352] ([NMeL]I[Sar][Aze][NPrPhe(4-CF3)][Sar][hPhe(3-Cl-4-CF3)][Pro(4,4-F2)][Ac4c][NMeGly(cPent)]D-Morpholide; lactam N-11)
[1]; [4]
  Kd: 0.82 nM
[2]
  NRAS/KRAS (ratio of KD value for NRAS to KD value for KRAS): C (A compound having a KD ratio of 0.1 or more and less than 3 is denoted as C)
[3]
  HRAS/KRAS (ratio of KD value for HRAS to KD value for KRAS): B (a compound having 3 or more and less than 10 is denoted as B)

## CCCN1C(=O)CN(C)C(=O)CNC(=O)[C@H]([C@@H](C)CC)NC(=O)[C@H](CC(C)C)N(C)C(=O)C[C@@H](C(=O)N(C)C)NC(=O)[C@H](C2CCCC2)N(C)C(=O)C2(CCC2)NC(=O)[C@@H]2CCCN2C(=O)[C@H](CCc2ccc(C(F)(F)F)c(Cl)c2)NC(=O)CN(C)C(=O)[C@@H]1Cc1ccc(C(F)(F)F)cc1 [PP0362] ([NMeL]IG[Sar][NPrPhe(4-CF3)][Sar][hPhe(3-Cl-4-CF3)]P[Ac4c][NMeGly(cPent)]D-NMe2; lactam N-11)
[1]; [4]
  Kd: 1 nM
[2]
  NRAS/KRAS (ratio of KD value for NRAS to KD value for KRAS): B (a compound having 3 or more and less than 10 is denoted as B)
[3]
  HRAS/KRAS (ratio of KD value for HRAS to KD value for KRAS): B (a compound having 3 or more and less than 10 is denoted as B)

## CCCN(C)C(=O)[C@@H]1CC(=O)N(C)[C@@H](C2CC2)C(=O)N[C@@H]([C@@H](C)CC)C(=O)N(C)CC(=O)N(C)[C@H]2C/C=C\CCN(C2=O)[C@@H](Cc2ccc(C(F)(F)F)cc2)C(=O)N(C)CC(=O)N[C@@H](CCc2cc(F)c(C(F)(F)F)c(F)c2)C(=O)N2C[C@@H](C)C[C@H]2C(=O)NC2(CCC2)C(=O)N(C)[C@@H](C2CCCC2)C(=O)N1C [PP2081]
[1]; SPR, Single Cycle Kinetics
  Kd: 0.12 nM
[2]
  NRAS/KRAS (ratio of KD value for NRAS to KD value for KRAS): A (a compound having 10 or more and less than 20 is denoted as A)
[3]
  HRAS/KRAS (ratio of KD value for HRAS to KD value for KRAS): A (a compound having 10 or more and less than 20 is denoted as A)

## CCCN1C(=O)[C@@H]2CCN2C(=O)[C@H](C)N(C)C(=O)[C@H]([C@@H](C)CC)NC(=O)[C@H](CC(C)C)N(C)C(=O)C[C@@H](C(=O)N(C)C)NC(=O)[C@H](C2CCCC2)N(C)C(=O)C2(CCCC2)NC(=O)[C@@H]2CC(F)(F)CN2C(=O)[C@H](CCc2ccc(C(F)(F)F)c(Cl)c2)NC(=O)CN(C)C(=O)[C@@H]1Cc1ccc(C(F)(F)F)cc1 [PP0381] ([NMeL]I[NMeA][Aze][NPrPhe(4-CF3)][Sar][hPhe(3-Cl-4-CF3)][Pro(4,4-F2)][Ac5c][NMeGly(cPent)]D-NMe2; lactam N-11)
[1]; [4]
  Kd: 0.49 nM
[2]
  NRAS/KRAS (ratio of KD value for NRAS to KD value for KRAS): C (A compound having a KD ratio of 0.1 or more and less than 3 is denoted as C)
[3]
  HRAS/KRAS (ratio of KD value for HRAS to KD value for KRAS): B (a compound having 3 or more and less than 10 is denoted as B)

## CC[C@H](C)[C@@H]1NC(=O)[C@H](CC(C)C)N(C)C(=O)C[C@@H](C(=O)N2CCOCC2)N(C)C(=O)[C@H](C2CCCC2)N(C)C(=O)C2(CC(F)(F)C2)NC(=O)[C@@H]2CCCN2C(=O)[C@H](CCc2cc(F)c(C(F)(F)F)c(F)c2)NC(=O)CN(C)C(=O)[C@H](Cc2ccc(C(F)(F)F)cc2)N2CCCCC[C@@H](C2=O)N(C)C(=O)CN(C)C1=O [PP0499]
[1]; [4]
  Kd: 1.1 nM
[2]
  NRAS/KRAS (ratio of KD value with respect to NRAS to KD value with respect to KRAS): B (a compound having 3 or more and less than 10 is denoted as B)
[3]
  HRAS/KRAS (ratio of KD value with respect to HRAS to KD value with respect to KRAS): B (a compound having 3 or more and less than 10 is denoted as B)

## CCO[C@@H]1C[C@H]2C(=O)NC3(CCC3)C(=O)N(C)[C@@H](C3CCCC3)C(=O)N(C)[C@H](C(=O)N(C)C)CC(=O)N(C)[C@@H](CC)C(=O)N[C@@H]([C@@H](C)CC)C(=O)N3CC[C@H]3C(=O)N(C)[C@H]3C/C=C\CCN(C3=O)[C@@H](Cc3ccc(C(F)(F)F)cc3)C(=O)N(C)CC(=O)N[C@@H](CCc3cc(F)c(C(F)(F)F)c(F)c3)C(=O)N2C1 [PP0984]
[1]; SPR, Single Cycle Kinetics
  Kd: 0.28 nM
[2]
  NRAS/KRAS (ratio of KD value for NRAS to KD value for KRAS): A (a compound having 10 or more and less than 20 is denoted as A)
[3]
  HRAS/KRAS (ratio of KD value for HRAS to KD value for KRAS): A (a compound having 10 or more and less than 20 is denoted as A)

## CCO[C@@H]1C[C@H]2C(=O)NC3(CC(F)(F)C3)C(=O)N(C)[C@@H](C3CCCC3)C(=O)N(C)[C@H](C(=O)N3CCOCC3)CC(=O)N(C)[C@@H](CC(C)C)C(=O)N[C@@H]([C@@H](C)CC)C(=O)N(C)CC(=O)N(C)[C@H]3C[C@H]4C[C@H]4CN(C3=O)[C@@H](Cc3ccc(C(F)(F)F)cc3)C(=O)N(C)CC(=O)N[C@@H](CCc3cc(F)c(C(F)(F)F)c(F)c3)C(=O)N2C1 [PP0831]
[1]; SPR, Single Cycle Kinetics
  Kd: 0.32 nM
[2]
  NRAS/KRAS (ratio of KD value for NRAS to KD value for KRAS): C (A compound having a KD ratio of 0.1 or more and less than 3 is denoted as C)
[3]
  HRAS/KRAS (ratio of KD value for HRAS to KD value for KRAS): C (A compound having a KD ratio of 0.1 or more and less than 3 is denoted as C)

## CC[C@H](C)[C@@H]1NC(=O)[C@H](CC(C)C)N(C)C(=O)C[C@@H](C(=O)N2CCOCC2)N(C)C(=O)[C@H](C2CCCC2)N(C)C(=O)C2(CCCC2)NC(=O)[C@@H]2CCCN2C(=O)[C@H](CCc2ccc(C(F)(F)F)c(Cl)c2)NC(=O)CN(C)C(=O)[C@H](Cc2ccc(F)cc2)N(C)C(=O)[C@@H]2CCN2C(=O)[C@H](C)N(C)C1=O [PP0217] ([NMeL]I[NMeA][Aze][NMePhe(4-F)][Sar][hPhe(3-Cl-4-CF3)]P[Ac5c][NMeGly(cPent)][NMeD]-Morpholide; lactam N-11)
[1]; [4]
  Kd: 0.18 nM
[2]
  NRAS/KRAS (ratio of KD value for NRAS to KD value for KRAS): C (A compound having a KD ratio of 0.1 or more and less than 3 is denoted as C)
[3]
  HRAS/KRAS (ratio of KD value for HRAS to KD value for KRAS): C (A compound having a KD ratio of 0.1 or more and less than 3 is denoted as C)

## CCO[C@@H]1C[C@H]2C(=O)NC3(CCC3)C(=O)N(C)[C@@H](C3CCCC3)C(=O)N(C)[C@H](C(=O)N(C)C)CC(=O)N(C)[C@H]3CCCCCCc4ccc(cc4)C[C@@H](C(=O)N(C)CC(=O)N[C@@H](CCc4ccc(C(F)(F)F)c(OC)c4)C(=O)N2C1)N1CC/C=C\C[C@@H](C1=O)N(C)C(=O)CN(C)C(=O)[C@H]([C@@H](C)CC)NC3=O [PP2264]
[1]; SPR, Single Cycle Kinetics
  Kd: 0.11 nM
[2]
  NRAS/KRAS (ratio of KD value for NRAS to KD value for KRAS): AA (a compound having 20 or more is denoted as AA)
[3]
  HRAS/KRAS (ratio of KD value for HRAS to KD value for KRAS): A (a compound having 10 or more and less than 20 is denoted as A)

## CCC(CC)[C@@H]1NC(=O)[C@H](CC(C)C)N(C)C(=O)C[C@@H](C(=O)N2CCOCC2)N(C)C(=O)[C@H](C2CCCC2)N(C)C(=O)C2(CCCC2)NC(=O)[C@@H]2CCCN2C(=O)[C@H](CCc2cc(F)c(C(F)(F)F)c(F)c2)NC(=O)CN(C)C(=O)[C@H](Cc2ccc(C(F)(F)F)cc2)N2CCCCC[C@@H](C2=O)N(C)C(=O)CN(C)C1=O [PP0523]
[1]; [4]
  Kd: 12 nM
[2]
  NRAS/KRAS (ratio of KD value with respect to NRAS to KD value with respect to KRAS): A (a compound having 10 or more and less than 20 is denoted as A)
[3]
  HRAS/KRAS (ratio of KD value with respect to HRAS to KD value with respect to KRAS): B (a compound having 3 or more and less than 10 is denoted as B)
